Bounds are passed on as bounds.

Broadly, the IC50 is the concentration that gives 50% inhibition. A higher IC50 goes with weaker potency.

Chain of Human CD38 (P28907 whole entry): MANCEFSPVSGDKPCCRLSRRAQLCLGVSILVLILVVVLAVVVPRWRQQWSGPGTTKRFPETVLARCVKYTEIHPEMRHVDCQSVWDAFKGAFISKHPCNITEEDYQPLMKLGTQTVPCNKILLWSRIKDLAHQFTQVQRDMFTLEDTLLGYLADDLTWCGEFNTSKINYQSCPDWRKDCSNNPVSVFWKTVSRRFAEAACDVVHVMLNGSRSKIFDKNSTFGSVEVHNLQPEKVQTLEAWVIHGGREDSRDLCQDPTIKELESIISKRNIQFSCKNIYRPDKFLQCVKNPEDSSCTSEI

This experiment concerns the target Human CD38 (Homo sapiens (Human), UniProt P28907). Put plainly: CD38 enzyme assay. It is filed as biochemical. Particulars: 2 nM CD38, NAD+ substrate, absorbance at 405 nm. From the text: [formula] where SUBcmpd is the subtracted value for the individual compound treated well, SUBmin is the average of the subtracted values of the 4-(((1r,4r)-4-(2-methoxyethoxy)cyclohexyl)amino)-1-methyl-6-(thiazol-5-yl)quinolin-2(1H)-one positive control wells and SUBmax is the average of the subtracted values of the DMSO negative control wells.
The % inhibition values were plotted as a function of compound concentration and the following 4-parameter fit was applied to derive the IC50 values:
[formula] where top and bottom are normally allowed to float, but may be fixed at 100 or 0 respectively in a 3-parameter fit. The Hill Coefficient is normally allowed to float but may also be fixed at 1 in a 3-parameter fit. Y is the % inhibition and X is the compound concentration.
For the compound `O=C(NCc1c(F)cccc1C(F)(F)F)c1cc(-c2cncs2)cc2cc[nH]c12` [Example 31, N-(2-Fluoro-6-(trifluoromethyl)benzyl)-5-(thiazol-5-yl)-1H-indole-7-carboxamide], the IC50 was in the range of 10 to 100 nM.
For the compound `COCCO[C@H]1CC[C@H](NC(=O)c2nc(-c3cncs3)nc3cc[nH]c23)CC1` [Example 32, N-((1r,4r)-4-(2-Methoxyethoxy)cyclohexyl)-2-(thiazol-5-yl)-5H-pyrrolo[3,2-d]pyrimidine-4-carboxamide], the IC50 was 10 to 100 nM.
Then `O=C(NCc1c(F)cccc1C(F)(F)F)c1nc(-c2cncs2)cc2nc[nH]c12` [Example 33, N-(2-Fluoro-6-(trifluoromethyl)benzyl)-6-(thiazol-5-yl)-3I-imidazo[4,5-c]pyridine-4-carboxamide], with greater than 1000 nM.
To `COCCO[C@H]1CC[C@H](NC(=O)c2nc(-n3ccnc3C)nc3cc[nH]c23)CC1` [Example 34, N-((1r,4r)-4-(2-Methoxyethoxy)cyclohexyl)-2-(2-methyl-1H-imidazol-1-yl)-5H-pyrrolo[3,2-d]pyrimidine-4-carboxamide] belongs greater than 1000 nM; to `COCCO[C@H]1CC[C@H](NC(=O)c2nc(-c3cn[nH]n3)nc3cc[nH]c23)CC1` [Example 35, N-((1r,4r)-4-(2-Methoxyethoxy)cyclohexyl)-2-(2H-1,2,3-triazol-4-yl)-5H-pyrrolo[3,2-d]pyrimidine-4-carboxamide], greater than 1000 nM.
To `COCCO[C@H]1CC[C@H](NC(=O)c2nc(-n3cncc3C)nc3cc[nH]c23)CC1` [Example 36, N-((1r,4r)-4-(2-Methoxyethoxy)cyclohexyl)-2-(5-methyl-1H-imidazol-1-yl)-5H-pyrrolo[3,2-d]pyrimidine-4-carboxamide] belongs 10 to 100 nM.
The compound `COCCO[C@H]1CC[C@H](NC(=O)c2nc(-n3cnc(C)c3)nc3cc[nH]c23)CC1` [Example 37, N-((1r,4r)-4-(2-methoxyethoxy)cyclohexyl)-2-(4-methyl-1H-imidazol-1-yl)-5H-pyrrolo[3,2-d]pyrimidine-4-carboxamide] yielded an IC50 greater than 1000 nM.
Regarding `COCCO[C@H]1CC[C@H](NC(=O)c2nc(-c3c[nH]cn3)nc3cc[nH]c23)CC1` [Example 38, 2-(1H-Imidazol-4-yl)-N-((1r,4r)-4-(2-methoxyethoxy)cyclohexyl)-5H-pyrrolo[3,2-d]pyrimidine-4-carboxamide], the IC50 is greater than 1000 nM.
Then `O=C(N[C@H]1CC[C@@H](C(F)(F)F)CC1)c1nc(-n2ccnc2)nc2cc[nH]c12` [Example 39a, 2-(1H-Imidazol-1-yl)-N-((1s,4s)-4-(trifluoromethyl)cyclohexyl)-5H-pyrrolo[3,2-d]pyrimidine-4-carboxamide], with less than 10 nM; and `O=C(N[C@H]1CC[C@H](C(F)(F)F)CC1)c1nc(-n2ccnc2)nc2cc[nH]c12` [Example 39b, 2-(1H-imidazol-1-yl)-N-((1r,4r)-4-(trifluoromethyl)cyclohexyl)-5H-pyrrolo[3,2-d]pyrimidine-4-carboxamide], with less than 10 nM; and `COCCO[C@H]1CC[C@H](NC(=O)c2cc(-n3ccnc3)cc3cnsc23)CC1` [Example 41, 5-(1H-Imidazol-1-yl)-N-((1r,4r)-4-(2-methoxyethoxy)cyclohexyl)benzo[d]isothiazole-7-carboxamide], with 100 to 1000 nM.
Then `Cc1nc2cc(-n3ccnc3)cc(C(=O)NCc3c(F)cccc3C(F)(F)F)c2[nH]1` [Example 42, N-(2-Fluoro-6-(trifluoromethyl)benzyl)-5-(1H-imidazol-1-yl)-2-methyl-1H-benzo[d]imidazole-7-carboxamide], with 100 to 1000 nM; and `O=C(NCc1c(F)cccc1C(F)(F)F)c1nc(-c2cncs2)nc2cc[nH]c12` [Example 43, N-(2-Fluoro-6-(trifluoromethyl)benzyl)-2-(thiazol-5-yl)-5H-pyrrolo[3,2-d]pyrimidine-4-carboxamide], with 100 to 1000 nM.
To `O=C(NCc1c(F)cccc1C(F)(F)F)c1cc(-n2ccnc2)nc2cc[nH]c12` [Example 44, N-(2-Fluoro-6-(trifluoromethyl)benzyl)-5-(1H-imidazol-1-yl)-1H-pyrrolo[3,2-b]pyridine-7-carboxamide] belongs 10 to 100 nM; to `COCCO[C@H]1CC[C@H](NC(=O)c2cc(-c3cncs3)cc3cc(C)[nH]c23)CC1` [Example 45, N-((1r,4r)-4-(2-Methoxyethoxy)cyclohexyl)-2-methyl-5-(thiazol-5-yl)-1H-indole-7-carboxamide], 100 to 1000 nM; to `O=C(NCc1c(F)cccc1C(F)(F)F)c1nc(-n2ccnc2)nc2nc[nH]c12` [Example 46, N-(2-Fluoro-6-(trifluoromethyl)benzyl)-2-(1H-imidazol-1-yl)-7H-purine-6-carboxamide], 10 to 100 nM.
As for `COCCO[C@H]1CC[C@H](NC(=O)c2nc(-c3cncs3)cc3nc[nH]c23)CC1` [Example 47, N-((1r,4r)-4-(2-Methoxyethoxy)cyclohexyl)-6-(thiazol-5-yl)-3H-imidazo[4,5-c]pyridine-4-carboxamide], the IC50 is greater than 1000 nM.
For `O=C(NCc1c(F)cccc1C(F)(F)F)c1nc(-n2ccnc2)cc2cn[nH]c12` [Example 48, N-(2-Fluoro-6-(trifluoromethyl)benzyl)-5-(1H-imidazol-1-yl)-1H-pyrazolo[3,4-c]pyridine-7-carboxamide], the IC50 lay within 10 to 100 nM.
For `O=C(NCc1c(F)cccc1C(F)(F)F)c1nc(-n2ccnc2)nc2ccsc12` [Example 49, N-(2-Fluoro-6-(trifluoromethyl)benzyl)-2-(1H-imidazol-1-yl)thieno[3,2-d]pyrimidine-4-carboxamide], the IC50 is 10 to 100 nM.
To `COCCO[C@H]1CC[C@H](NC(=O)c2nc(-c3cncs3)nc3ccsc23)CC1` [Example 50, N-((1r,4r)-4-(2-Methoxyethoxy)cyclohexyl)-2-(thiazol-5-yl)thieno[3,2-d]pyrimidine-4-carboxamide] belongs 10 to 100 nM; to `O=C(NCc1c(F)cccc1C(F)(F)F)c1nc(-n2ccnc2)nc2cc[nH]c12` [Example 51, N-(2-Fluoro-6-(trifluoromethyl)benzyl)-2-(1H-imidazol-1-yl)-5H-pyrrolo[3,2-d]pyrimidine-4-carboxamide], 10 to 100 nM; to `O=C(NC1CCN(CC(F)(F)F)CC1)c1nc(-n2ccnc2)nc2cc[nH]c12` [Example 52, 2-(1H-Imidazol-1-yl)-N-(1-(2,2,2-trifluoroethyl)piperidin-4-yl)-5H-pyrrolo[3,2-d]pyrimidine-4-carboxamide], 10 to 100 nM.
For the compound `COCCN1CCC(NC(=O)c2nc(-n3ccnc3)nc3cc[nH]c23)CC1` [Example 53, 2-(1H-Imidazol-1-yl)-N-(1-(2-methoxyethyl)piperidin-4-yl)-5H-pyrrolo[3,2-d]pyrimidine-4-carboxamide], the IC50 lay within 100 to 1000 nM.
To `O=C(NC1CCNCC1)c1nc(-n2ccnc2)nc2cc[nH]c12` [Example 54, 2-(1H-Imidazol-1-yl)-N-(piperidin-4-yl)-5H-pyrrolo[3,2-d]pyrimidine-4-carboxamide] belongs greater than 1000 nM; to `O=C(NC1CCN(CCC(F)(F)F)CC1)c1nc(-n2ccnc2)nc2cc[nH]c12` [Example 55, 2-(1H-Imidazol-1-yl)-N-(1-(3,3,3-trifluoropropyl)piperidin-4-yl)-5H-pyrrolo[3,2-d]pyrimidine-4-carboxamide], 10 to 100 nM.
Take `COCCN[C@H]1CC[C@H](NC(=O)c2nc(-n3ccnc3)nc3cc[nH]c23)CC1` [Example 56, 2-(1H-Imidazol-1-yl)-N-((1r,4r)-4-((2-methoxyethyl)amino)cyclohexyl)-5H-pyrrolo[3,2-d]pyrimidine-4-carboxamide]: the IC50 was in the range of 10 to 100 nM.
The compound `COCCN(C)[C@H]1CC[C@H](NC(=O)c2nc(-n3ccnc3)nc3cc[nH]c23)CC1` [Example 57, 2-(1H-Imidazol-1-yl)-N-((1r,4r)-4-((2-methoxyethyl)(methyl)amino)cyclohexyl)-5H-pyrrolo[3,2-d]pyrimidine-4-carboxamide] showed an IC50 of 10 to 100 nM.
`CO[C@H]1CC[C@H](NC(=O)c2nc(-n3ccnc3)nc3cc[nH]c23)CC1` [Example 58, 2-(1H-Imidazol-1-yl)-N-((1r,4r)-4-methoxycyclohexyl)-5H-pyrrolo[3,2-d]pyrimidine-4-carboxamide] yielded an IC50 of less than 10 nM.
To `O=C(NC1CCCCC1)c1nc(-n2ccnc2)nc2cc[nH]c12` [Example 59, N-cyclohexyl-2-(1H-Imidazol-1-yl)-5H-pyrrolo[3,2-d]pyrimidine-4-carboxamide] belongs less than 10 nM; to `CN1CCC(NC(=O)c2nc(-n3ccnc3)nc3cc[nH]c23)CC1` [Example 60, 2-(1H-Imidazol-1-yl)-N-(1-methylpiperidin-4-yl)-5H-pyrrolo[3,2-d]pyrimidine-4-carboxamide], greater than 1000 nM; to `O=C(NC1CCS(=O)(=O)CC1)c1nc(-n2ccnc2)nc2cc[nH]c12` [Example 61, N-(1,1-Dioxidotetrahydro-2H-thiopyran-4-yl)-2-(1H-imidazol-1-yl)-5H-pyrrolo[3,2-d]pyrimidine-4-carboxamide], 10 to 100 nM.
Then `O=C(NC1CCOCC1)c1nc(-n2ccnc2)nc2cc[nH]c12` [Example 62, 2-(1H-Imidazol-1-yl)-N-(tetrahydro-2H-pyran-4-yl)-5H-pyrrolo[3,2-d]pyrimidine-4-carboxamide], with 10 to 100 nM; and `COCCOc1ccc(NC(=O)c2nc(-n3ccnc3)nc3cc[nH]c23)cc1` [Example 63, 2-(1H-Imidazol-1-yl)-N-(4-(2-methoxyethoxy)phenyl)-5H-pyrrolo[3,2-d]pyrimidine-4-carboxamide], with less than 10 nM; and `CC(=O)N1CCC(NC(=O)c2nc(-n3ccnc3)nc3cc[nH]c23)CC1` [Example 64, N-(1-Acetylpiperidin-4-yl)-2-(1H-imidazol-1-yl)-5H-pyrrolo[3,2-d]pyrimidine-4-carboxamide], with 10 to 100 nM.
